US20230398130A1, “METHODS AND COMPOSITIONS FOR DIFFERENTIATING STEM CELLS” (Massachusetts Institute of Technology, priority 2020, published 2023)
Structures can show the parent of a compound that is named as a salt.

Tests used:
ISC-enriched organoids [1] = assay: Secondary (validation) screen, 384-well 2.5-D, ENR+CD 6 days, n=8 wells, vs ENR+CD+DMSO control: basal lysozyme secretion (LYZ.NS); assay type: cell-based, murine
Protocol: (§1) Drugs were tested at a narrowed dose range around each treatment's identified optimal dose from the primary screen (4× below, 2× above and below).
(§2) High-throughput screening.
(§3) Secondary lysozyme secretion assay screen. Confirmatory secondary screening with primary hits was performed using the above 384-well plate method. The screen was conducted with 4-plate replicates with a base media of ENR+CD. Media was supplemented with compound at day 0 and day 3 (n=8 well replicates per dose) at four different doses: two-fold above, two-fold below, and four-fold below the optimal final dose for each respective treatment. Additionally, each plate carried a large number of ENR+DMSO or ENR+CD+DMSO (vehicle) control wells (n=100 for ATP, and n=25 for LYZ.NS and LYZ.S) for robust normalization. ATP, non-stimulated lysozyme activity and CCh-stimulated lysozyme activity was again measured and the collected data was again processed in a custom R-script, per primary screen with slight modification. Values were log10 transformed, and a plate-wise FC was calculated for each well based on the median value of ENR+CD+DMSO (vehicle) control wells to normalize plate to plate variability.

ISC-enriched organoids [2] = assay: Secondary (validation) screen, 384-well 2.5-D, ENR+CD 6 days, n=8 wells, vs ENR+CD+DMSO control: ATP (CTG); assay type: cell-based, murine
Protocol: as §1, §2, §3

ISC-enriched organoids [3] = assay: Primary screen, 384-well 2.5-D organoid differentiation (ENR+CD, 6 days, Target Selective Inhibitor Library, vs whole-plate median): ATP (CellTiter-Glo 3D, CTG); settings: for Z.CTG: standard z score of FC
ISC-enriched organoids [4] = assay: Secondary (validation) screen, 384-well 2.5-D, ENR+CD 6 days, n=8 wells, vs ENR+CD+DMSO control: carbachol-induced lysozyme secretion (LYZ.S); assay type: cell-based, murine
Protocol: as §1, §2, §3

## COc1cc(Nc2c(C#N)cnc3cc(OCCCN4CCN(C)CC4)c(OC)cc23)c(Cl)cc1Cl [Bosutinib (SKI-606), Bosutinib]
ISC-enriched organoids [1]; Dose 0.02 uM
  Z.LYZ.NS: 1.061
  repSSMD.LYZ.NS: 1.620
ISC-enriched organoids [1]; Dose 0.04 uM
  Z.LYZ.NS: −0.535
  repSSMD.LYZ.NS: −0.666
ISC-enriched organoids [1]; dose 0.08 uM
  Z.LYZ.NS: −0.562
  repSSMD.LYZ.NS: −0.903
ISC-enriched organoids [2]; Dose 0.02 uM
  Z.CTG: 1.944
  repSSMD.CTG: 1.251
ISC-enriched organoids [2]; Dose 0.04 uM
  Z.CTG: 1.254
  repSSMD.CTG: 0.876
ISC-enriched organoids [2]; dose 0.08 uM
  Z.CTG: 0.735
  repSSMD.CTG: 0.584
ISC-enriched organoids [3]; primary screen, dose 0.08 uM
  Z.CTG: 1.499
ISC-enriched organoids [3]; primary screen, dose 0.40 uM
  Z.CTG: 0.720
ISC-enriched organoids [3]; primary screen, dose 2.00 uM
  Z.CTG: −0.405
ISC-enriched organoids [3]; primary screen, dose 10.00 uM
  Z.CTG: −1.595
ISC-enriched organoids [4]; Dose 0.02 uM
  repSSMD.LYZ.S: 1.147
ISC-enriched organoids [4]; Dose 0.04 uM
  Z.LYZ.S: −0.663
  repSSMD.LYZ.S: −0.977
ISC-enriched organoids [4]; dose 0.08 uM
  Z.LYZ.S: −0.554
  repSSMD.LYZ.S: −0.892

## CCOc1ccc(Cc2cc([C@@H]3O[C@H](CO)[C@@H](O)[C@H](O)[C@H]3O)ccc2Cl)cc1 [Dapagliflozin]
ISC-enriched organoids [1]; Dose 0.02 uM
  Z.LYZ.NS: 0.173
  repSSMD.LYZ.NS: 0.231
ISC-enriched organoids [1]; Dose 0.04 uM
  Z.LYZ.NS: 1.197
  repSSMD.LYZ.NS: 1.267
ISC-enriched organoids [1]; dose 0.08 uM
  Z.LYZ.NS: 0.462
  repSSMD.LYZ.NS: 0.537
ISC-enriched organoids [2]; Dose 0.02 uM
  Z.CTG: 0.770
  repSSMD.CTG: 0.643
ISC-enriched organoids [2]; Dose 0.04 uM
  Z.CTG: 1.569
  repSSMD.CTG: 0.979
ISC-enriched organoids [2]; dose 0.08 uM
  Z.CTG: 1.346
  repSSMD.CTG: 0.777
ISC-enriched organoids [3]; Dose 0.08 uM
  Z.CTG: 0.980
ISC-enriched organoids [3]; Dose 0.40 uM
  Z.CTG: 0.607
ISC-enriched organoids [3]; Dose 2.00 uM
  Z.CTG: 0.699
ISC-enriched organoids [3]; Dose 10.00 uM
  Z.CTG: 0.719
ISC-enriched organoids [4]; Dose 0.02 uM
  Z.LYZ.S: −0.144
  repSSMD.LYZ.S: −0.225
ISC-enriched organoids [4]; Dose 0.04 uM
  Z.LYZ.S: 0.528
  repSSMD.LYZ.S: 0.751
ISC-enriched organoids [4]; dose 0.08 uM
  Z.LYZ.S: 0.530
  repSSMD.LYZ.S: 0.879

## CC(C)(C)NC(=O)[C@H]1CC[C@H]2[C@@H]3CC[C@H]4NC(=O)C=C[C@]4(C)[C@H]3CC[C@]12C [Finasteride]
ISC-enriched organoids [1]; Dose 0.02 uM
  Z.LYZ.NS: 0.445
  repSSMD.LYZ.NS: 0.362
ISC-enriched organoids [1]; Dose 0.04 uM
  Z.LYZ.NS: −1.510
  repSSMD.LYZ.NS: −2.570
ISC-enriched organoids [1]; dose 0.08 uM
  Z.LYZ.NS: −1.522
  repSSMD.LYZ.NS: −2.177
ISC-enriched organoids [2]; Dose 0.02 uM
  Z.CTG: 0.596
  repSSMD.CTG: 0.358
ISC-enriched organoids [2]; Dose 0.04 uM
  Z.CTG: −1.623
  repSSMD.CTG: −0.994
ISC-enriched organoids [2]; dose 0.08 uM
  Z.CTG: −0.099
  repSSMD.CTG: −0.083
ISC-enriched organoids [3]; Dose 0.08 uM
  Z.CTG: 0.360
ISC-enriched organoids [3]; Dose 0.40 uM
  Z.CTG: −0.092
ISC-enriched organoids [3]; Dose 2.00 uM
  Z.CTG: 0.174
ISC-enriched organoids [3]; Dose 10.00 uM
  Z.CTG: −0.097
ISC-enriched organoids [4]; Dose 0.02 uM
  Z.LYZ.S: −0.147
  repSSMD.LYZ.S: −0.197
ISC-enriched organoids [4]; Dose 0.04 uM
  Z.LYZ.S: −1.996
  repSSMD.LYZ.S: −3.825
ISC-enriched organoids [4]; dose 0.08 uM
  Z.LYZ.S: −1.859
  repSSMD.LYZ.S: −2.574

## COc1ccc(C2CNC(=O)C2)cc1OC1CCCC1 (centres unmarked) [Rolipram]
ISC-enriched organoids [1]; Dose 0.50 uM
  Z.LYZ.NS: −0.342
  repSSMD.LYZ.NS: −0.478
ISC-enriched organoids [1]; Dose 1.00 uM
  Z.LYZ.NS: 1.213
  repSSMD.LYZ.NS: 1.715
ISC-enriched organoids [1]; Dose 4.00 uM
  Z.LYZ.NS: −0.407
  repSSMD.LYZ.NS: −0.543
ISC-enriched organoids [1]; dose 2.00 uM
  Z.LYZ.NS: 0.793
  repSSMD.LYZ.NS: 0.950
ISC-enriched organoids [2]; Dose 0.50 uM
  Z.CTG: 0.477
  repSSMD.CTG: 0.368
ISC-enriched organoids [2]; Dose 1.00 uM
  Z.CTG: 1.198
  repSSMD.CTG: 0.832
ISC-enriched organoids [2]; Dose 4.00 uM
  Z.CTG: 0.583
  repSSMD.CTG: 0.447
ISC-enriched organoids [2]; dose 2.00 uM
  Z.CTG: 1.819
  repSSMD.CTG: 1.420
ISC-enriched organoids [3]; Dose 0.08 uM, primary screen
  Z.CTG (standard z score): 0.850
ISC-enriched organoids [3]; Dose 0.40 uM, primary screen
  Z.CTG (standard z score): 0.370
ISC-enriched organoids [3]; Dose 2.00 uM, primary screen
  Z.CTG (standard z score): 0.945
ISC-enriched organoids [3]; Dose 10.00 uM, primary screen
  Z.CTG (standard z score): 0.714
ISC-enriched organoids [4]; Dose 0.50 uM
  Z.LYZ.S: −0.631
  repSSMD.LYZ.S: −0.936
ISC-enriched organoids [4]; Dose 1.00 uM
  Z.LYZ.S: 0.801
  repSSMD.LYZ.S: 1.107
ISC-enriched organoids [4]; Dose 4.00 uM
  Z.LYZ.S: −0.543
  repSSMD.LYZ.S: −0.736
ISC-enriched organoids [4]; dose 2.00 uM
  Z.LYZ.S: 0.227
  repSSMD.LYZ.S: 0.169

## N#CC[C@H](C1CCCC1)n1cc(-c2ncnc3[nH]ccc23)cn1 [Ruxolitinib (INCB018424), Ruxolitinib]
ISC-enriched organoids [1]; Dose 2.50 uM
  Z.LYZ.NS: −1.251
  repSSMD.LYZ.NS: −1.701
ISC-enriched organoids [1]; Dose 5.00 uM
  Z.LYZ.NS: −1.098
  repSSMD.LYZ.NS: −1.569
ISC-enriched organoids [1]; Dose 20.00 uM
  Z.LYZ.NS: 0.522
  repSSMD.LYZ.NS: 0.930
ISC-enriched organoids [1]; dose 10.00 uM
  Z.LYZ.NS: −0.671
  repSSMD.LYZ.NS: −1.103
ISC-enriched organoids [2]; Dose 2.50 uM
  Z.CTG: −0.128
  repSSMD.CTG: −0.090
ISC-enriched organoids [2]; Dose 5.00 uM
  Z.CTG: −2.016
  repSSMD.CTG: −1.168
ISC-enriched organoids [2]; Dose 20.00 uM
  Z.CTG: 1.496
  repSSMD.CTG: 0.952
ISC-enriched organoids [2]; dose 10.00 uM
  Z.CTG: −1.380
  repSSMD.CTG: −1.030
ISC-enriched organoids [3]; Dose 0.08 uM, primary screen
  Z.CTG (standard z score): 1.093
ISC-enriched organoids [3]; Dose 0.40 uM, primary screen
  Z.CTG (standard z score): 0.867
ISC-enriched organoids [3]; Dose 2.00 uM, primary screen
  Z.CTG (standard z score): 1.062
ISC-enriched organoids [3]; Dose 10.00 uM, primary screen
  Z.CTG (standard z score): 1.140
ISC-enriched organoids [4]; Dose 2.50 uM
  Z.LYZ.S: −1.400
  repSSMD.LYZ.S: −1.806
ISC-enriched organoids [4]; Dose 5.00 uM
  Z.LYZ.S: −1.667
  repSSMD.LYZ.S: −2.281
ISC-enriched organoids [4]; Dose 20.00 uM
  Z.LYZ.S: 0.208
  repSSMD.LYZ.S: 0.382
ISC-enriched organoids [4]; dose 10.00 uM
  Z.LYZ.S: −1.289
  repSSMD.LYZ.S: −2.212

## C[C@H](NCc1ccc(OCc2cccc(F)c2)cc1)C(N)=O [Safinamide Mesylate]
ISC-enriched organoids [1]; Dose 0.50 uM
  Z.LYZ.NS: −1.244
  repSSMD.LYZ.NS: −1.484
ISC-enriched organoids [1]; Dose 1.00 uM
  Z.LYZ.NS: −1.847
  repSSMD.LYZ.NS: −2.985
ISC-enriched organoids [1]; Dose 4.00 uM
  Z.LYZ.NS: −0.272
  repSSMD.LYZ.NS: −0.431
ISC-enriched organoids [1]; dose 2.00 uM
  Z.LYZ.NS: −0.368
  repSSMD.LYZ.NS: −0.556
ISC-enriched organoids [2]; Dose 0.50 uM
  Z.CTG: −0.127
  repSSMD.CTG: −0.118
ISC-enriched organoids [2]; Dose 1.00 uM
  Z.CTG: −0.743
  repSSMD.CTG: −0.547
ISC-enriched organoids [2]; Dose 4.00 uM
  Z.CTG: −0.022
  repSSMD.CTG: −0.013
ISC-enriched organoids [2]; dose 2.00 uM
  Z.CTG: −0.098
  repSSMD.CTG: −0.060
ISC-enriched organoids [3]; Dose 0.08 uM, primary screen
  Z.CTG (standard z score): 0.633
ISC-enriched organoids [3]; Dose 0.40 uM, primary screen
  Z.CTG (standard z score): 0.575
ISC-enriched organoids [3]; Dose 2.00 uM, primary screen
  Z.CTG (standard z score): 0.627
ISC-enriched organoids [3]; Dose 10.00 uM, primary screen
  Z.CTG (standard z score): 0.883
ISC-enriched organoids [4]; Dose 0.50 uM
  Z.LYZ.S: −1.637
  repSSMD.LYZ.S: −2.413
ISC-enriched organoids [4]; Dose 1.00 uM
  Z.LYZ.S: −2.259
  repSSMD.LYZ.S: −3.571
ISC-enriched organoids [4]; Dose 4.00 uM
  Z.LYZ.S: −0.658
  repSSMD.LYZ.S: −0.942
ISC-enriched organoids [4]; dose 2.00 uM
  Z.LYZ.S: −0.757
  repSSMD.LYZ.S: −1.243

## CCc1c(C(=O)C(N)=O)c2c(OCC(=O)O)cccc2n1Cc1ccccc1 [Varespladib (LY315920), Varespladib]
ISC-enriched organoids [1]; Dose 0.02 uM
  Z.LYZ.NS: −0.723
  repSSMD.LYZ.NS: −0.763
ISC-enriched organoids [1]; Dose 0.04 uM
  Z.LYZ.NS: 0.123
  repSSMD.LYZ.NS: 0.213
ISC-enriched organoids [1]; dose 0.08 uM
  Z.LYZ.NS: 0.718
  repSSMD.LYZ.NS: 1.251
ISC-enriched organoids [2]; Dose 0.02 uM
  Z.CTG: 0.244
  repSSMD.CTG: 0.187
ISC-enriched organoids [2]; Dose 0.04 uM
  Z.CTG: 1.019
  repSSMD.CTG: 0.518
ISC-enriched organoids [2]; dose 0.08 uM
  Z.CTG: 1.862
  repSSMD.CTG: 1.114
ISC-enriched organoids [4]; Dose 0.02 uM
  Z.LYZ.S: −1.057
  repSSMD.LYZ.S: −1.652
ISC-enriched organoids [4]; Dose 0.04 uM
  Z.LYZ.S: −0.339
  repSSMD.LYZ.S: −0.641
ISC-enriched organoids [4]; dose 0.08 uM
  Z.LYZ.S: 0.497
  repSSMD.LYZ.S: 0.838
